The results in this text go back to patent publication US9668477B2, “Active compound combinations” (BAYER CROPSCIENCE AG, priority 2012, dated 2017).

Common to all, as to format: in vivo
For one test, the system named is Alternaria solani. The test is described as follows: Alternaria test (tomatoes)/preventive. As to conditions: 3 days after inoculation. How it is done:
(§1) Solvent: 24.5 parts by weight of acetone • 24.5 parts by weight of dimethylacetamide
(§2) Emulsifier: 1 part by weight of alkylaryl polyglycol ether
(§3) To produce a suitable preparation of active compound, 1 part by weight of active compound is mixed with the stated amounts of solvent and emulsifier, and the concentrate is diluted with water to the desired concentration.
To test for preventive activity, young plants are sprayed with the preparation of active compound at the stated rate of application. After the spray coating has dried on, the plants are inoculated with an aqueous spore suspension of Alternaria solani. The plants are then placed in an incubation cabinet at approximately 20° C. and a relative atmospheric humidity of 100%.
The test is evaluated 3 days after the inoculation. 0% means an efficacy which corresponds to that of the untreated control while an efficacy of 100% means that no disease is observed.

The next test relates to Venturia inaequalis. The test is described as follows: Venturia test (apples)/preventive. The note with it: Table I1, 10 days after inoculation. How it is done:
(§4) Solvent: 24.5 parts by weight of acetone • 24.5 parts by weight of dimethylacetamide Emulsifier: 1 part by weight of alkylaryl polyglycol ether To produce a suitable preparation of active compound, 1 part by weight of active compound is mixed with the stated amounts of solvent and emulsifier, and the concentrate is diluted with water to the desired concentration. To test for preventive activity, young plants are sprayed with the preparation of active compound at the stated rate of application.

For another test, the system named is Pyrenophora teres. The test is described as follows: Pyrenophora teres-test (barley)/preventive. The note with it: Table F1, 8 days after inoculation. How it is done: (§5) Solvent: 49 parts by weight of N,N-dimethylacetamide
as §2
(§6) To produce a suitable preparation of active compound, 1 part by weight of active compound or active compound combination is mixed with the stated amounts of solvent and emulsifier, and the concentrate is diluted with water to the desired concentration.
(§7) To test for preventive activity, young plants are sprayed with the preparation of active compound or active compound combination at the stated rate of application.
After the spray coating has been dried, the plants are sprayed with a spore suspension of Pyrenophora teres. The plants remain for 48 hours in an incubation cabinet at approximately 20° C. and a relative atmospheric humidity of approximately 100%.
(§8) The plants are placed in the greenhouse at a temperature of approximately 20° C. and a relative atmospheric humidity of approximately 80%.
(§9) The test is evaluated 8 days after the inoculation. 0% means an efficacy which corresponds to that of the untreated control, while an efficacy of 100% means that no disease is observed.

In a further test the test system is Phakopsora pachyrhizi. The test is described as follows: Phakopsora test (soybeans)/preventive. As to conditions: 7 days after inoculation.
The next test concerns Uromyces appendiculatus. The test is described as follows: Uromyces test (beans)/preventive. As to conditions: 10 days after inoculation. How it is done:
as §1, §2, §3
To test for preventive activity, young plants are sprayed with the preparation of active compound at the stated rate of application. After the spray coating has dried on, the plants are inoculated with an aqueous spore suspension of the causal agent of bean rust (Uromyces appendiculatus) and then remain for 1 day in an incubation cabinet at approximately 20° C. and a relative atmospheric humidity of 100%.
The plants are then placed in a greenhouse at approximately 21° C. and a relative atmospheric humidity of approximately 90%.
The test is evaluated 10 days after the inoculation. 0% means an efficacy which corresponds to that of the untreated control, while an efficacy of 100% means that no disease is observed.

In test [1] the test system is Blumeria graminis f.sp. hordei. The test is described as follows: Blumeria test (barley)/preventive. As to conditions: Table B1, 7 days after inoculation. The procedure:
(§10) Solvent: 49 parts by weight of N,N-dimethylacetamide Emulsifier: 1 part by weight of alkylaryl polyglycol ether To produce a suitable preparation of active compound, 1 part by weight of active compound or active compound combination is mixed with the stated amounts of solvent and emulsifier, and the concentrate is diluted with water to the desired concentration. To test for preventive activity, young plants are sprayed with the preparation of active compound or active compound combination at the stated rate of application. After the spray coating has been dried, the plants are dusted with spores of Blumeria graminis f.sp. hordei.

The next test relates to Puccinia triticina. Put plainly: Puccinia triticina-test (wheat)/preventive. As to conditions: Table E1, 8 days after inoculation. How it is done: as §5, §2, §6, §7
After the spray coating has been dried, the plants are sprayed with a spore suspension of Puccinia triticina. The plants remain for 48 hours in an incubation cabinet at approximately 20° C. and a relative atmospheric humidity of approximately 100%.
as §8, §9

Another test concerns Leptosphaeria nodorum. The test is described as follows: Leptosphaeria nodorum test (wheat)/preventive. As to conditions: Table C1, 8 days after inoculation. The procedure: as §10, with “sprayed” for “dusted”, “a spore suspension” for “spores”, “Leptosphaeria nodorum.” for “Blumeria graminis f.sp. hordei.”
The test system of the next test is Sphaerotheca fuliginea. Put plainly: Sphaerotheca test (cucumbers)/preventive. The note with it: Table G1, 7 days after inoculation. The procedure:
as §4, with “application. After the spray coating has dried on, the plants are inoculated with an aqueous spore suspension of Sphaerotheca fuliginea.” for “application.”

The mark [2] stands for this setting: Phakopsora pachyrhizi, 168 h, Table D1, 1 ppm a.i., read-out: Efficacy in % found.

Take `Cn1cc(C(=O)Nc2ccc(F)cc2-c2ccc(Cl)c(Cl)c2)c(C(F)F)n1` [2.1, bixafen]: the “Efficacy in % found” value in the test with Alternaria solani (Table A1, 0.5 ppm a.i.) came out at 43%; with Venturia inaequalis (0.5 ppm a.i.) it was 0%; with Pyrenophora teres (80 ppm a.i.), 94%; in the test with Phakopsora pachyrhizi (Table D1, 1 ppm a.i.) it was 0%.

For `CO/C=C(/C(=O)OC)c1ccccc1COc1cccc(C(F)(F)F)n1` [3.16, picoxystrobin], the “Efficacy in % found” value in the test on Uromyces appendiculatus (Table H1, 2.5 ppm a.i.) came out at 65%; in the test on Pyrenophora teres (40 ppm a.i.) it was 75%; in [1] (40 ppm a.i.), 30%.

In the case of `CON=C(C(=O)OC)c1ccccc1CON=C(C)c1cccc(C(F)(F)F)c1` [3.22, trifloxystrobin], the “Efficacy in % found” value in the test on Venturia inaequalis (0.5 ppm a.i.) stood at 86%; with Puccinia triticina (20 ppm a.i.), 60%.

Take `Fc1ccc([C@]2(Cn3cncn3)O[C@H]2c2ccccc2Cl)cc1` (racemic) [1.12, epoxiconazole]: the “Efficacy in % found” value in the test with Leptosphaeria nodorum (40 ppm a.i.) was 33%; in the test with Phakopsora pachyrhizi (Table D2, 0.5 ppm a.i.), 23%.

As for `OC(Cc1ccccc1Cl)(Cn1nc[nH]c1=S)C1(Cl)CC1` (stereo not drawn) [1.41, prothioconazole], in the test with Puccinia triticina (80 ppm a.i.), the “Efficacy in % found” value is on record as 20%. Moreover, in the test on Phakopsora pachyrhizi (Phakopsora pachyrhizi, 168 h, Table D2, 0.5 ppm a.i., read-out: Efficacy in % found), the pest or weed control at 0.5 ppm came to 20%.

In the case of `CO/N=C(/C1=NOCCO1)c1ccccc1Oc1ncnc(Oc2ccccc2Cl)c1F` [3.12, fluoxastrobin], in the test with Pyrenophora teres (20 ppm a.i.), the “Efficacy in % found” value turned out to be 13%.

Regarding `Cn1c(=O)c2sc3c(=O)n(C)c(=O)c3sc2c1=O` [15.61, 2,6-dimethyl-1H,5H-[1,4]dithiino[2,3-c:5,6-c′]dipyrrole-1,3,5,7(2H,6H)-tetrone], the “Efficacy in % found” value turned out to be 23% in the test with Alternaria solani (Table A2, 50 ppm a.i.); 38% with Sphaerotheca fuliginea (25 ppm a.i.); 40% with Puccinia triticina (800 ppm a.i.).

As for `O=C(NCCc1ncc(C(F)(F)F)cc1Cl)c1ccccc1C(F)(F)F` [2.6, fluopyram], the “Efficacy in % found” value with Pyrenophora teres (40 ppm a.i.) is 94%. Besides, the pest or weed control at 4 ppm with Phakopsora pachyrhizi (Phakopsora pachyrhizi, 168 h, Table D1, 4 ppm a.i., read-out: Efficacy in % found) is 0%.

As to `CC(C)c1ccc(Cl)cc1CN(C(=O)c1c(C(F)F)nn(C)c1F)C1CC1` [15.151, N-(5-chloro-2-isopropylbenzyl)-N-cyclopropyl-3-(difluoromethyl)-5-fluoro-1-methyl-1H-pyrazole-4-carboxamide], the “Efficacy in % found” value in the test on Alternaria solani (Table A1, 0.25 ppm a.i.) was 39%; with Pyrenophora teres (20 ppm a.i.) it was 88%; in test [1] (20 ppm a.i.), 0%.

For the compound `CC(C)(C)C(O)(CCc1ccc(Cl)cc1)Cn1cncn1` (stereo not drawn) [1.47, tebuconazole], the “Efficacy in % found” value in the test with Uromyces appendiculatus (Table H2, 2 ppm a.i.) was 30%; with Sphaerotheca fuliginea (2.5 ppm a.i.), 38%. For the same compound, the pest or weed control at 1 ppm in the test on Phakopsora pachyrhizi (setting [2]) is 58%.

As for propineb [5.29], the “Efficacy in % found” value turned out to be 12% in the test with Alternaria solani (Table A2, 20 ppm a.i.); 56% with Uromyces appendiculatus (Table H2, 20 ppm a.i.); 33% with Leptosphaeria nodorum (400 ppm a.i.); 14% in the test with Venturia inaequalis (5 ppm a.i.); 29% with Sphaerotheca fuliginea (10 ppm a.i.); 30% in the test on Puccinia triticina (400 ppm a.i.).

Consider `CC(C)CC(C)c1sccc1NC(=O)c1cn(C)nc1C(F)(F)F` (stereo not drawn) [2.21, penthiopyrad], for which the results for the “Efficacy in % found” value (in the test with Pyrenophora teres (80 ppm a.i.); in [1] (80 ppm a.i.)) were 63% and 30%, respectively.

For `COC(=O)N(OC)c1ccccc1COc1ccn(-c2ccc(Cl)cc2)n1` [3.17, pyraclostrobin], the “Efficacy in % found” value with Puccinia triticina (20 ppm a.i.) is given as 20%.

Regarding `CC1(C)CCC(Cc2ccc(Cl)cc2)C1(O)Cn1cncn1` (stereo not drawn) [1.30, metconazole], in the test on Puccinia triticina (40 ppm a.i.), the “Efficacy in % found” value turned out to be 70%.

Consider `CO/C=C(/C(=O)OC)c1ccccc1Oc1cc(Oc2ccccc2C#N)ncn1` [3.3, azoxystrobin], for which the “Efficacy in % found” value was 0% with Uromyces appendiculatus (Table H3, 0.125 ppm a.i.); 88% in the test with Venturia inaequalis (0.5 ppm a.i.); 75% with Pyrenophora teres (20 ppm a.i.); 10% in [1] (20 ppm a.i.); 15% in the test with Phakopsora pachyrhizi (Table D1, 0.25 ppm a.i.).

For `CC1CC(C)(C)c2cccc(NC(=O)c3cn(C)nc3C(F)F)c21` (stereo not drawn) [2.32, 3-(difluoromethyl)-1-methyl-N-(1,1,3-trimethyl-2,3-dihydro-1H-inden-4-yl)-1H-pyrazole-4-carboxamide], in test [1] (80 ppm a.i.), the “Efficacy in % found” value was 30%.

Take `Cn1cc(C(=O)Nc2ccccc2-c2cc(F)c(F)c(F)c2)c(C(F)F)n1` [2.8, fluxapyroxad]: the “Efficacy in % found” value in the test with Uromyces appendiculatus (Table H1, 0.25 ppm a.i.) was 0%; in the test with Pyrenophora teres (40 ppm a.i.), 94%; with Phakopsora pachyrhizi (Table D1, 1 ppm a.i.), 0%.

In the case of `CC(C1CC1)C(O)(Cn1cncn1)c1ccc(Cl)cc1` (stereo not drawn) [1.5, cyproconazole], the “Efficacy in % found” value with Uromyces appendiculatus (Table H3, 1 ppm a.i.) is recorded as 57%; with Venturia inaequalis (2 ppm a.i.), 40%. For the same compound, the pest or weed control at 1 ppm in the test on Phakopsora pachyrhizi (setting [2]) amounted to 63%.

For `Cn1cc(C(=O)Nc2cccc3c2[C@@H]2CC[C@H]3C2=C(Cl)Cl)c(C(F)F)n1` (racemic) [2.29, benzovindiflupyr], the “Efficacy in % found” value in the test on Pyrenophora teres (40 ppm a.i.) is 0%; with Phakopsora pachyrhizi (Table D1, 0.5 ppm a.i.), 8%.

As for `N#Cc1c(Cl)c(Cl)c(Cl)c(C#N)c1Cl` [5.4, chlorothalonil], the “Efficacy in % found” value in the test on Alternaria solani (Table A2, 20 ppm a.i.) came to 8%; in the test on Uromyces appendiculatus (Table H2, 20 ppm a.i.), 0%; in the test with Venturia inaequalis (20 ppm a.i.), 68%; in the test with Sphaerotheca fuliginea (5 ppm a.i.), 19%; in the test with Puccinia triticina (160 ppm a.i.), 20%.
